Assay results taken from patent US8852664B2, “Neo-menthyl derivatives as flavor materials” (Symrise AG, priority 2008, dated 2014).

Experiment: Flavor profile determined by a trained panel of at least 5 testers
Assay type: in vivo
Experimental: The flavor profiles were determined by a trained panel of at least 5 testers by tasting against a 0.5% strength salt and a 0.5% strength sugar solution

[1] = trained panel of at least 5 testers, tasting against a 0.5% strength salt and a 0.5% strength sugar solution
[2] = table of further examples, prepared from racemic neo-menthol or neo-menthylamine and tasted

Compound | Flavor Profile [1] | Flavor Profile [2]
1-((1S,2S,5R)-2-Isopropyl-5-methyl-cyclohexyl)-3-(2-methoxy-1-methyl-ethyl)-urea (5)/1-((1R,2R,5S)-2-isopropyl-5-methyl-cyclohexyl)-3-(2-methoxy-1-methyl-ethyl)-urea (6) [Synthesis Example 3] | long-lasting, salty, umami | 
3-[3-((1S,2S,5R)-2-Isopropyl-5-methyl-cyclohexyl)-ureido]-butyric acid ethyl ester (7)/3-[3-((1R,2R,5S)-2-isopropyl-5-methyl-cyclohexyl)-ureido]-butyric acid ethyl ester (8) [Synthesis Example 4] | bitter, salty, metallic, umami | 
4-((1S,2S,5R)-2-Isopropyl-5-methyl-cyclohexyloxycarbonylamino)-butyric acid ethyl ester (11)/4-((1R,2R,5S)-2-isopropyl-5-methyl-cyclohexyloxycarbonylamino)-butyric acid ethyl ester (12) [Synthesis Example 6] | bitter, salty, umami | 
CCNC(=O)O[C@H]1C[C@H](C)CC[C@H]1C(C)C (racemic) |  | cooling, umami, menthol note
CC(C)[C@@H]1CC[C@@H](C)C[C@@H]1OC(=O)NCCCO (racemic) |  | soapy, vegetable, asparagus, potato, mouthfeel, slightly umami
COCCNC(=O)O[C@H]1C[C@H](C)CC[C@H]1C(C)C (racemic) |  | sweet, umami
COCCNC(=O)N[C@H]1C[C@H](C)CC[C@H]1C(C)C (racemic) |  | fishy, salty, umami
CCOCCCNC(=O)O[C@H]1C[C@H](C)CC[C@H]1C(C)C (racemic) |  | rancid, musty, bitter, umami
CC(C)[C@@H]1CC[C@@H](C)C[C@@H]1NC(=O)NCCOCCO (racemic) |  | fatty, oily (fish), umami
CCOCCCNC(=O)N[C@H]1C[C@H](C)CC[C@H]1C(C)C (racemic) |  | fatty, tallow, dry- dusty, long-lasting, umami
CC(C)[C@@H]1CC[C@@H](C)C[C@@H]1NC(=O)NCCO (racemic) |  | alga, roasted note, umami, sweet
CC(C)[C@@H]1CC[C@@H](C)C[C@@H]1OC(=O)NCCOCCO (racemic) |  | fatty, tallow, oily, salty, metallic
CC(C)[C@@H]1CC[C@@H](C)C[C@@H]1OC(=O)NCC1CCCO1 (mixture of isomers) |  | bitter, long-lasting, umami
CC(C)[C@@H]1CC[C@@H](C)C[C@@H]1OC(=O)NC1CCCC1 (racemic) |  | bitter, salty
CC(C)[C@@H]1CC[C@@H](C)C[C@@H]1NC(=O)NCc1ccccc1 (racemic) |  | long-lasting, umami
CC(C)[C@@H]1CC[C@@H](C)C[C@@H]1NC(=O)NC1CCCC1 (racemic) |  | bitter, astringent, long-lasting, salty, metallic
CC(C)[C@@H]1CC[C@@H](C)C[C@@H]1NC(=O)NCC1CCCO1 (mixture of isomers) |  | salty, weakly umami
CC(C)[C@@H]1CC[C@@H](C)C[C@@H]1NC(=O)NCC1COC(C)(C)O1 (mixture of isomers) |  | sweet, umami
COCC(C)NC(=O)O[C@H]1C[C@H](C)CC[C@H]1C(C)C (mixture of isomers) |  | bitter, metallic, umami

Compound | Flavor Profile [1] | Flavor Profile [2]
CC(C)[C@@H]1CC[C@@H](C)C[C@@H]1OC(=O)NCc1ccc2c(c1)OCO2 (racemic) |  | bitter, umami
CC(C)[C@@H]1CC[C@@H](C)C[C@@H]1NC(=O)NC1CC1 (racemic) |  | bitter, long-lasting, salty, umami
CC(C)[C@@H]1CC[C@@H](C)C[C@@H]1NC(=O)NCc1ccc2c(c1)OCO2 (racemic) |  | salty, weakly umami
CC(C)[C@@H]1CC[C@@H](C)C[C@@H]1OC(=O)NC1CCCCC1 (racemic) |  | weakly sweet and weakly umami
CC(C)[C@@H]1CC[C@@H](C)C[C@@H]1OC(=O)NCC1COC(C)(C)O1 (mixture of isomers) |  | sweet, bitter, caramel, salty
CCOC(=O)CC(C)NC(=O)O[C@H]1C[C@H](C)CC[C@H]1C(C)C (mixture of isomers) |  | bitter, dry-dusty, tingling, slightly umami
CC(C)[C@@H]1CC[C@@H](C)C[C@@H]1OC(=O)NC1CC1 (racemic) |  | bitter, salty, umami
CC(C)[C@@H]1CC[C@@H](C)C[C@@H]1OC(=O)Nc1ccccc1 (racemic) |  | bitter, dry, dusty, umami, dull
CC(C)[C@@H]1CC[C@@H](C)C[C@@H]1OC(=O)NCCCCO (racemic) |  | slightly bitter, salty, umami
CC(C)[C@@H]1CC[C@@H](C)C[C@@H]1NC(=S)NC1CCCC1 (racemic) |  | bitter, long-lasting, umami, metallic
COCCCNC(=S)N[C@H]1C[C@H](C)CC[C@H]1C(C)C (racemic) |  | very bitter, umami
CCNC(=S)N[C@H]1C[C@H](C)CC[C@H]1C(C)C (racemic) |  | bitter, dry-dusty, umami
COCC(C)NC(=S)N[C@H]1C[C@H](C)CC[C@H]1C(C)C (mixture of isomers) |  | bitter, slightly umami
CC(C)[C@@H]1CC[C@@H](C)C[C@@H]1NC(=S)NC1CC1 (racemic) |  | bitter, mouthfeel, umami
COCCCNC(=O)O[C@H]1C[C@H](C)CC[C@H]1C(C)C [(9), (3-methoxy-propyl)-carbamic acid (1S,2S,5R)-2-isopropyl-5-methyl-cyclohexyl ester] | umami, salty, metallic, bitter | 
COCCCNC(=O)O[C@@H]1C[C@@H](C)CC[C@@H]1C(C)C [(10), (3-methoxy-propyl)-carbamic acid (1R,2R,5S)-2-isopropyl-5-methyl-cyclohexyl ester] | umami, salty, metallic, not bitter | 
CCOC(=O)CCCNC(=O)O[C@H]1C[C@H](C)CC[C@H]1C(C)C [(11), 4-((1S,2S,5R)-2-isopropyl-5-methyl-cyclohexyloxycarbonylamino)-butyric acid ethyl ester] | salty, umami, relatively weak in comparison with the racemate | 
CCOC(=O)CCCNC(=O)O[C@@H]1C[C@@H](C)CC[C@@H]1C(C)C [(12), 4-((1R,2R,5S)-2-isopropyl-5-methyl-cyclohexyloxycarbonylamino)-butyric acid ethyl ester] | salty, umami, delayed and weaker in comparison with the racemate | 
